In patent US20260069529A1 (BLIS TECHNOLOGIES LIMITED, priority 2022, published 2026):

Key:
Micrococcus luteus Q24 [1] = experiment: Inhibition by potential prebiotics, spot on lawned CABK12 agar (prebiotic MIC); format: cell-based; conditions: 24 hours 37° C. 5% CO2; for Suitable to be used in Q24 containing product?: aqueous substances 100% to 0.3%, oils 100% only
Description: CABK12 agar plates were split into segments of 6 and […] suspension of Micrococcus luteus […] raw ingredient. Each of the aqueous potential prebiotic substances to be screened were serially diluted in a range of concentrations from 100% to 0.3% using sterile distilled water. Oil based substances were tested at 100% only. 20 μL of each concentration, of each substance were pipetted into a spot onto one segment of the […]12 agar plate and was incubated for 24 hours at 37° C. 5% CO2 in air.

Micrococcus luteus Q24 [2] = experiment: Effect of prebiotics on the growth of Micrococcus luteus Q24 in M17 broth; format: cell-based; conditions: at 24 hours
Description: A batch of M17 broth (Difco #218561) was made, excluding the lactose solution, by following the manufacturer's instructions. 50 ml of broth was dispensed into sterile 100 ml Schott bottles and 2.5 g (5% w/v) of each potential prebiotic substance was added and mixed well using a magnetic stirrer and stir plate. The mixtures were autoclaved at 110° C. for 10 minutes and allowed to cool.
The suspensions of the prebiotic candidates were prewarmed to 40° C. in order to allow for increased homogenisation of any oil-based components prior to dispensing into the wells. 2 ml of each suspension and an M17 only (control) were pipetted into a sterile 24 well tissue culture plate. […] 100 μl of the suspension was pipetted into each well. Once the suspension was added each well was mixed by aspirating and dispensing the solution 5 times with a 1 ml pipette.
Each sample was enumerated at time points 0, 3, 6, 15, 26 and 34 hours using the following method. […] The number of colonies in each spot were then counted using an electronic colony counter and average to give the final result.
The same method was used as described above except the time points tested were 0, 6, 18 and 24 hours. Olive squalene was selected as one of the preferred prebiotics with 3 others that were analysed in combination with olive squalene and compared to the results of the prebiotic candidates alone (FIG. 17).

IL-6 = experiment: EpiDerm safety and efficacy experiment, cytokine quantification IL-6; format: cell-based, human
Description: (§1) The remaining 6 tissues, which were destined for histology or else to receive 5% SDS, were grouped together on the sixth cell culture plate. […] Vitamin C (50 μg/mL) was instead delivered in the culture medium. On day 4 conditioned media samples were collected and stored frozen at −80° C. for cytokine measurement. 33 of the tissues were then exposed for 30 μL of 0.5% or 5% SDS in PBS, or to PBS as negative control. […] The remaining 3 tissues (destined for histology) were simply fed fresh medium and given the appropriate main treatment. […] All tissues were gently rinsed with PBS and the 3 histology tissues were fixed in neutral buffered formalin. The viabilities of the other 33 tissues were assessed using the MTT viability assay.
(§2) For quantification of IL-1β, IFN-α2, IFN-γ, TNF-α, MCP-1 (CCL2), IL-6, IL-8 (CXCL8), IL-10, IL-12p70, IL-17A, IL-18, IL-23, and IL-33, bead-based multiplex LEGENDplex™ analysis (LEGENDplex™ Human Inflammation Panel 1 (13-plex); BioLegend, San Diego, CA, USA) was used according to the manufacturer's instructions. The relevance of each of the measured cytokines for which activity was observed is described in Table 6. Reactions were performed in duplicate. Analysis was performed with the Cytek™ Aurora flow cytometer (Cytek Biosciences Inc., Fremont, CA, USA). Data were analysed via Legendplex V8.0 software (BioLegend) and specified as pg/mL.

IL-8 (CXCL8) = experiment: EpiDerm safety and efficacy experiment, cytokine quantification IL-8; format: cell-based, human; conditions: daily treatment 4 days; Q24 1×10^8 CFU/ml, vitamin C 50 μg/mL
Description: as §1, §2

IL-18 = experiment: EpiDerm safety and efficacy experiment, cytokine quantification IL-18; format: cell-based, human; conditions: daily treatment 4 days; Q24 1×10^8 CFU/ml, vitamin C 50 μg/mL
Description: as §1, §2

`NC(=O)NC1NC(=O)NC1=O` (centres unmarked) [Allantoin] was tested, and the “Suitable to be used in Q24 containing product?” value (shortened to “Suitable to be used”) (Micrococcus luteus Q24 [1]) was “Yes”.
For `CC(O)C(=O)O` (centres unmarked) [Lactic acid (LA), Lactic acid], the “Inhibitory concentration against Micrococcus luteus Q24” value (Micrococcus luteus Q24 [1]) was > 2.5% and the “Suitable to be used” value (Micrococcus luteus Q24 [1]) was “No”.
With `NC(=O)c1cccnc1` [Niacinamide] the “Suitable to be used” value (Micrococcus luteus Q24 [1]) was “Yes”.
In the case of `CC(C)=CCC/C(C)=C/CC/C(C)=C/CC/C=C(\C)CC/C=C(\C)CCC=C(C)C` [Olive Squalene], the “Suitable to be used” value (Micrococcus luteus Q24 [1]) is reported as “Yes”.
`CC1=C(/C=C/C(C)=C/C=C/C(C)=C/CO)C(C)(C)CCC1` [Retinol (Vitamin A), Retinol] was tested, and the “Suitable to be used” value (Micrococcus luteus Q24 [1]) was “Yes”.
With `O=C(O)c1ccccc1O` [Salicylic acid (SA), Salicylic acid] the “Inhibitory concentration against Micrococcus luteus Q24” value (Micrococcus luteus Q24 [1]) was > 5% and the “Suitable to be used” value (Micrococcus luteus Q24 [1]) was “No”.
With `Cc1c(C)c2c(c(C)c1O)CC[C@@](C)(CCC[C@H](C)CCC[C@H](C)CCCC(C)C)O2` [Vitamin E, D Alpha Tocopherol 1000 IU, D Alpha Tocopherol] the “Suitable to be used” value (Micrococcus luteus Q24 [1]) was “Yes”.
`OC[C@@H](O)[C@H](O)[C@@H](O)CO` [Xylitol] was tested, and the “Suitable to be used” value (Micrococcus luteus Q24 [1]) was “Yes” and the “Effect on live Micrococcus luteus Q24 cell count” value (Micrococcus luteus Q24 [2]) was “detrimental”.
`O=C1O[C@H]([C@@H](O)CO)C(O)=C1O` [vitamin C, Ascorbic acid] was tested, and the “Suitable to be used” value (Micrococcus luteus Q24 [1]) was “Yes”, the “IL-6 levels day 4 vs day 0” value (IL-6; daily treatment 4 days, Q24 1×10^8 CFU/ml, vitamin C 50 μg/mL) was “slight but significant increase on day 4” and the “IL-6 released in response to 0.5% SDS” value (IL-6; pre-treatment 4 days, day 5 vs day 4) was “slight increase on day 5”. For the same compound, the “IL-8 levels day 4 vs day 0” value (IL-8 (CXCL8)) was “unchanged” and the “IL-18 levels day 4 vs day 0” value (IL-18) was “trend for lower values on day 4”.
In the case of Hyaluronic acid, the “Suitable to be used” value (Micrococcus luteus Q24 [1]) is reported as “Yes”.
